Patent publication US6737383B1, “Herbicidal oxadiazolidines” (priority 1999, dated 2004)

Experiments:
giant foxtail = test: Test B pre/postemergence giant foxtail; assay type: in vivo, Setaria faberii
Method in brief: (§1)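 Response is a visual 0-to-10 score relative to untreated plants, where 0 means no effect and 10 means complete control, taken twelve to sixteen days after application. Treatments went onto soil at planting and onto foliage of 1- to 4-leaf plants, using a surfactant-containing non-phytotoxic solvent.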

morningglory = test: Test B pre/postemergence morningglory; assay type: in vivo, Ipomoea hederacea
Method in brief: as §1

pigweed = test: Test B pre/postemergence pigweed; assay type: in vivo, Amaranthus retroflexus
Method in brief: as §1

rape = test: Test B pre/postemergence rape; assay type: in vivo, Brassica napus
Method in brief: as §1

winter wheat [1] = test: Test E winter wheat; assay type: in vivo, Triticum aestivum; conditions: Postemergence
Method in brief: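 Postemergence: 60:40 sandy loam/greenhouse potting mix, 1- to 4-leaf stage. Formulation: solvent plus surfactant. Assessment: visual comparison with untreated controls at ~21–28 days.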

blackgrass = test: Test E blackgrass; assay type: in vivo, Alopecurus myosuroides; conditions: Preemergence
green foxtail = test: Test E green foxtail; assay type: in vivo, Setaria viridis; conditions: Preemergence
Italian ryegrass = test: Test E Italian ryegrass; assay type: in vivo, Lolium multiflorum; conditions: Preemergence
winter wheat [2] = test: Test E winter wheat; assay type: in vivo, Triticum aestivum; conditions: Preemergence
wild oat = test: Test E wild oat; assay type: in vivo, Avena fatua; conditions: Preemergence
winter barley = test: Test E winter barley; assay type: in vivo, Hordeum vulgare; conditions: Preemergence
[3] = Postemergence, Rate 125 g/ha, scale 0 to 10, 0 is no effect, 10 is complete control
[4] = Preemergence, Rate 62 g/ha, scale 0 to 10 (0 no effect, 10 complete control)
[5] = Preemergence, Rate 250 g/ha, scale of 0 to 10 where 0 is no effect and 10 is complete control
[6] = Preemergence, Rate 500 g/ha, scale of 0 to 10 where 0 is no effect and 10 is complete control
[7] = Rate 62 g/ha, Postemergence, scale of 0 to 10 where 0 is no effect and 10 is complete control
[8] = Rate 500 g/ha, Postemergence, scale 0 to 10, 0 no effect, 10 complete control
[9] = Rate 250 g/ha, 0 to 100 scale, 0 is no effect, 100 is complete control
[10] = Rate 500 g/ha, 0 to 100 scale, 0 is no effect, 100 is complete control
[11] = Rate 125 g/ha, 0 to 100 scale (0 no effect, 100 complete control)
[12] = Rate 500 g/ha, 0 to 100 scale (0 no effect, 100 complete control)
[13] = Rate 250 g/ha, 0 to 100 scale, 0 no effect, 100 complete control
[14] = Preemergence, Rate 62 g/ha, scale of 0 to 10 where 0 is no effect and 10 is complete control
[15] = Rate 62 g/ha, Postemergence, scale 0 to 10 (0 no effect, 10 complete control)
[16] = Rate 125 g/ha, Postemergence, scale of 0 to 10 where 0 is no effect and 10 is complete control
[17] = Rate 125 g/ha, Preemergence, scale of 0 to 10 where 0 is no effect and 10 is complete control
[18] = Rate 250 g/ha, Postemergence, scale of 0 to 10 where 0 is no effect and 10 is complete control
[19] = Rate 1000 g/ha, 0 to 100 scale where 0 is no effect and 100 is complete control
[20] = Rate 1000 g/ha, 0 to 100 scale, 0 no effect, 100 complete control

CC(C)N(C(=O)n1oc(=O)n(C2CCC2)c1=O)c1ccc(F)cc1F [Compound 351]
Plant response rating, Giant foxtail (giant foxtail; [3]): 7 | Plant response rating, Giant foxtail (giant foxtail; [4]): 10 | Giant foxtail plant response rating (0 to 10 scale) (giant foxtail; Preemergence, Rate 125 g/ha): 10 | Giant foxtail plant response rating (giant foxtail; [5]): 10 | Giant foxtail plant response rating (giant foxtail; [6]): 10 | Giant foxtail plant response rating (giant foxtail; [7]): 0 | Plant response rating, Giant foxtail (giant foxtail; [8]): 9 | Plant response rating, Morningglory (morningglory; [3]): 4 | Plant response rating, Morningglory (morningglory; [4]): 0 | Morningglory plant response rating (0 to 10 scale) (morningglory; Preemergence, Rate 125 g/ha): 0 | Morningglory plant response rating (morningglory; [5]): 0 | Morningglory plant response rating (morningglory; [6]): 0 | Morningglory plant response rating (morningglory; [7]): 3 | Plant response rating, Morningglory (morningglory; [8]): 6 | Plant response rating, Redroot pigweed (pigweed; [3]): 0 | Plant response rating, Redroot pigweed (pigweed; [4]): 10 | Redroot pigweed plant response rating (0 to 10 scale) (pigweed; Preemergence, Rate 125 g/ha): 10 | Redroot pigweed plant response rating (pigweed; [5]): 10 | Redroot pigweed plant response rating (pigweed; [6]): 10 | Redroot pigweed plant response rating (pigweed; [7]): 0 | Plant response rating, Redroot pigweed (pigweed; [8]): 7 | Plant response rating, Rape (rape; [3]): 0 | Plant response rating, Rape (rape; [4]): 0 | Rape plant response rating (0 to 10 scale) (rape; Preemergence, Rate 125 g/ha): 3 | Rape plant response rating (rape; [5]): 6 | Rape plant response rating (rape; [6]): 9 | Rape plant response rating (rape; [7]): 0 | Plant response rating, Rape (rape; [8]): 5 | Plant response rating, Wheat (winter) (winter wheat [1]; Rate 125 g/ha, 0 to 100 scale, 0 is no effect, 100 is complete control): 60 | Plant response rating, Wheat (winter) (winter wheat [1]; [9]): 70 | Plant response rating, Wheat (winter) (winter wheat [1]; [10]): 75 | Plant response rating, Blackgrass (blackgrass; [11]): 35 | Plant response rating, Blackgrass (blackgrass; Rate 250 g/ha, 0 to 100 scale): 85 | Plant response rating, Blackgrass (blackgrass; [12]): 100 | Plant response rating, Green foxtail (green foxtail; [11]): 40 | Plant response rating, Green foxtail (green foxtail; Rate 250 g/ha, 0 to 100 scale): 90 | Plant response rating, Green foxtail (green foxtail; [12]): 85 | Plant response rating, I. Ryegrass (Italian ryegrass; [11]): 55 | Plant response rating, I. Ryegrass (Italian ryegrass; Rate 250 g/ha, 0 to 100 scale): 60 | Plant response rating, I. Ryegrass (Italian ryegrass; [12]): 60 | Plant response rating, Wheat (winter) (winter wheat [2]; [11]): 50 | Plant response rating, Wheat (winter) (winter wheat [2]; Rate 250 g/ha, 0 to 100 scale): 60 | Plant response rating, Wheat (winter) (winter wheat [2]; [12]): 70 | Plant response rating, Wild oat (wild oat; [11]): 70 | Plant response rating, Wild oat (wild oat; Rate 250 g/ha, 0 to 100 scale): 70 | Plant response rating, Wild oat (wild oat; [12]): 80 | Plant response rating, Barley (winter) (winter barley; [11]): 70 | Plant response rating, Barley (winter) (winter barley; [13]): 70 | Plant response rating, Barley (winter) (winter barley; [12]): 80

CC1Cc2cccc(-n3c(=O)on(C(=O)N(c4ccc(F)cc4)C(C)C)c3=O)c2O1 (stereo not shown) [Compound 281]
Giant foxtail plant response rating (giant foxtail; [14]): 7 | Giant foxtail plant response rating (giant foxtail; [5]): 10 | Plant response rating, Giant foxtail (giant foxtail; [6]): 10 | Giant foxtail plant response rating (giant foxtail; [15]): 0 | Giant foxtail plant response rating (giant foxtail; [16]): 0 | Giant foxtail plant response rating (giant foxtail; [17]): 9 | Plant response rating, Giant foxtail (giant foxtail; [18]): 0 | Giant foxtail plant response rating (giant foxtail; [8]): 0 | Morningglory plant response rating (morningglory; [14]): 0 | Morningglory plant response rating (morningglory; [5]): 0 | Plant response rating, Morningglory (morningglory; [6]): 0 | Morningglory plant response rating (morningglory; [15]): 2 | Morningglory plant response rating (morningglory; [16]): 2 | Morningglory plant response rating (morningglory; [17]): 0 | Plant response rating, Morningglory (morningglory; [18]): 3 | Morningglory plant response rating (morningglory; [8]): 5 | Redroot pigweed plant response rating (pigweed; [14]): 0 | Redroot pigweed plant response rating (pigweed; [5]): 0 | Plant response rating, Redroot pigweed (pigweed; [6]): 0 | Redroot pigweed plant response rating (pigweed; [15]): 0 | Redroot pigweed plant response rating (pigweed; [16]): 2 | Redroot pigweed plant response rating (pigweed; [17]): 0 | Plant response rating, Redroot pigweed (pigweed; [18]): 5 | Redroot pigweed plant response rating (pigweed; [8]): 6 | Rape plant response rating (rape; [14]): 0 | Rape plant response rating (rape; [5]): 0 | Plant response rating, Rape (rape; [6]): 0 | Rape plant response rating (rape; [15]): 0 | Rape plant response rating (rape; [16]): 0 | Rape plant response rating (rape; [17]): 0 | Plant response rating, Rape (rape; [18]): 0 | Rape plant response rating (rape; [8]): 0 | Plant response rating, Wheat (winter) (winter wheat [1]; [19]): 80 | Wheat (winter) plant response rating (winter wheat [1]; Rate 250 g/ha, 0 to 100 scale where 0 is no effect and 100 is complete control): 55 | Plant response rating, Wheat (winter) (winter wheat [1]; [10]): 70 | Blackgrass plant response rating (0 to 100 scale) (blackgrass; Rate 250 g/ha): 50 | Plant response rating, Blackgrass (blackgrass; [20]): 50 | Green foxtail plant response rating (0 to 100 scale) (green foxtail; Rate 250 g/ha): 100 | Plant response rating, Green foxtail (green foxtail; [12]): 100 | Plant response rating, Green foxtail (green foxtail; [20]): 100 | I. Ryegrass plant response rating (0 to 100 scale) (Italian ryegrass; Rate 250 g/ha): 60 | Plant response rating, I. Ryegrass (Italian ryegrass; [12]): 60 | Plant response rating, I. Ryegrass (Italian ryegrass; [20]): 60 | Wheat (winter) plant response rating (0 to 100 scale) (winter wheat [2]; Rate 250 g/ha): 60 | Plant response rating, Wheat (winter) (winter wheat [2]; [12]): 65 | Plant response rating, Wheat (winter) (winter wheat [2]; [20]): 80 | Wild oat plant response rating (0 to 100 scale) (wild oat; Rate 250 g/ha): 70 | Plant response rating, Wild oat (wild oat; [12]): 65 | Plant response rating, Wild oat (wild oat; [20]): 80 | Barley (winter) plant response rating (0 to 100 scale) (winter barley; Rate 250 g/ha): 70 | Plant response rating, Barley (winter) (winter barley; [12]): 70 | Plant response rating, Barley (winter) (winter barley; [20]): 80

CC(C)N(C(=O)n1oc(=O)n(C2CC3CCC2C3)c1=O)c1ccccc1 (stereo not shown) [Compound 328]
Plant response rating, Giant foxtail (giant foxtail; [3]): 0 | Giant foxtail plant response rating (giant foxtail; [14]): 0 | Giant foxtail plant response rating (0 to 10 scale) (giant foxtail; Preemergence, Rate 125 g/ha): 5 | Giant foxtail plant response rating (giant foxtail; [5]): 8 | Giant foxtail plant response rating (giant foxtail; [6]): 9 | Giant foxtail plant response rating (giant foxtail; [15]): 0 | Plant response rating, Giant foxtail (giant foxtail; [18]): 0 | Plant response rating, Giant foxtail (giant foxtail; [8]): 1 | Plant response rating, Morningglory (morningglory; [3]): 8 | Morningglory plant response rating (morningglory; [14]): 0 | Morningglory plant response rating (0 to 10 scale) (morningglory; Preemergence, Rate 125 g/ha): 0 | Morningglory plant response rating (morningglory; [5]): 0 | Morningglory plant response rating (morningglory; [6]): 4 | Morningglory plant response rating (morningglory; [15]): 7 | Plant response rating, Morningglory (morningglory; [18]): 10 | Plant response rating, Morningglory (morningglory; [8]): 10 | Plant response rating, Redroot pigweed (pigweed; [3]): 3 | Redroot pigweed plant response rating (pigweed; [14]): 0 | Redroot pigweed plant response rating (0 to 10 scale) (pigweed; Preemergence, Rate 125 g/ha): 0 | Redroot pigweed plant response rating (pigweed; [5]): 0 | Redroot pigweed plant response rating (pigweed; [6]): 4 | Redroot pigweed plant response rating (pigweed; [15]): 2 | Plant response rating, Redroot pigweed (pigweed; [18]): 3 | Plant response rating, Redroot pigweed (pigweed; [8]): 5 | Plant response rating, Rape (rape; [3]): 0 | Rape plant response rating (rape; [14]): 0 | Rape plant response rating (0 to 10 scale) (rape; Preemergence, Rate 125 g/ha): 0 | Rape plant response rating (rape; [5]): 0 | Rape plant response rating (rape; [6]): 0 | Rape plant response rating (rape; [15]): 0 | Plant response rating, Rape (rape; [18]): 0 | Plant response rating, Rape (rape; [8]): 0 | Plant response rating, Wheat (winter) (winter wheat [1]; [9]): 65 | Plant response rating, Wheat (winter) (winter wheat [1]; [19]): 80 | Plant response rating, Wheat (winter) (winter wheat [1]; [10]): 70 | Plant response rating, Blackgrass (blackgrass; Rate 250 g/ha, 0 to 100 scale): 50 | Plant response rating, Blackgrass (blackgrass; [12]): 50 | Plant response rating, Blackgrass (blackgrass; [20]): 40 | Plant response rating, Green foxtail (green foxtail; Rate 250 g/ha, 0 to 100 scale): 100 | Plant response rating, Green foxtail (green foxtail; [12]): 85 | Plant response rating, Green foxtail (green foxtail; [20]): 100 | Plant response rating, I. Ryegrass (Italian ryegrass; Rate 250 g/ha, 0 to 100 scale): 65 | Plant response rating, I. Ryegrass (Italian ryegrass; [12]): 60 | Plant response rating, I. Ryegrass (Italian ryegrass; [20]): 70 | Plant response rating, Wheat (winter) (winter wheat [2]; Rate 250 g/ha, 0 to 100 scale): 40 | Plant response rating, Wheat (winter) (winter wheat [2]; [12]): 70 | Plant response rating, Wheat (winter) (winter wheat [2]; [20]): 70 | Plant response rating, Wild oat (wild oat; Rate 250 g/ha, 0 to 100 scale): 70 | Plant response rating, Wild oat (wild oat; [12]): 50 | Plant response rating, Wild oat (wild oat; [20]): 60 | Plant response rating, Barley (winter) (winter barley; [13]): 40 | Plant response rating, Barley (winter) (winter barley; [12]): 50 | Plant response rating, Barley (winter) (winter barley; [20]): 70
